Patent US20260226039A1, “INHIBITORS OF SOLVENT FRONT MUTATED RET KINASE” (Purdue Research Foundation, priority 2023, published 2026)
Substitutions are numbered along the chain they refer to. ≈ marks a conversion by molar mass, not a printed value. One block for each compound: values may come before it.

Assays:
KIF5B-RET G810V = molecular target: T1, KIF5B-RET G810V (Homo sapiens, UniProt P07949, G810V); assay: Cell viability assay (CellTiter-Glo) in BaF3 cells expressing KIF5B-RET G810V; type: cell-based; details: B/KR mutant cell line G810V; read-out: IC50 of RET mutants, G810V
T1 construct: KIF5B (fusion partner); expressed in transfected cells; host or cells: BaF3 (lentiviral vector); the other entry of the earlier key: KIF5B (P33176, Kinesin-1 heavy chain)
T1 sequence (P07949 713-1063 G810V limits assumed): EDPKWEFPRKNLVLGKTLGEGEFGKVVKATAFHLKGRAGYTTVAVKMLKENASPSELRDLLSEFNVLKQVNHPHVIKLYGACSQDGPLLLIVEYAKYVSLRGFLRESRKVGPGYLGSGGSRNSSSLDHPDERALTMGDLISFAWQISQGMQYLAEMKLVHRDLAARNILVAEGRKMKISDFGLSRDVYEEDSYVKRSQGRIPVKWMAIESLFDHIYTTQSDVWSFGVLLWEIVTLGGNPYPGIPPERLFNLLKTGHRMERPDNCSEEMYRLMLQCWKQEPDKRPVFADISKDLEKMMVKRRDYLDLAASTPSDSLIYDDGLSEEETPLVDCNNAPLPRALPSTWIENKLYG
Source text: (§1) KIF5B-RET G810D and G810V mutations were generated by PCR-based mutagenesis with primers containing the desired mutations. […] Drug screening and ICso data of BaF3/KR and mutation cells were from 2 or more experiments performed in 3 technical replicates.

KIF5B-RET G810C = molecular target: T2, KIF5B-RET G810C (Homo sapiens, UniProt P07949, G810C); assay: Cell viability assay (CellTiter-Glo) in BaF3 cells expressing KIF5B-RET G810C; type: cell-based; details: B/KR mutant cell line G810C; read-out: IC50 of RET mutants, G810C
T2 construct: KIF5B (fusion partner); expressed in transfected cells; host or cells: BaF3; the other entry of the earlier key: KIF5B (P33176, Kinesin-1 heavy chain)
T2 sequence (P07949 713-1063 G810C limits assumed): T1 sequence (P07949 713-1063 G810V limits assumed) with V98C
Source text: as §1

KIF5B-RET G810A = molecular target: T3, KIF5B-RET G810A (Homo sapiens, UniProt P07949, G810A); assay: Cell viability assay (CellTiter-Glo) in BaF3 cells expressing KIF5B-RET G810A; type: cell-based; details: B/KR mutant cell line G810A; read-out: IC50 of RET mutants, G810A
T3 construct: KIF5B (fusion partner); expressed in transfected cells; host or cells: BaF3; the other entry of the earlier key: KIF5B (P33176, Kinesin-1 heavy chain)
T3 sequence (P07949 713-1063 G810A limits assumed): T1 sequence (P07949 713-1063 G810V limits assumed) with V98A
Source text: as §1

KIF5B-RET G810R = molecular target: T4, KIF5B-RET G810R (Homo sapiens, UniProt P07949, G810R); assay: Cell viability assay (CellTiter-Glo) in BaF3 cells expressing KIF5B-RET G810R; type: cell-based; details: B/KR mutant cell line G810R; read-out: IC50 of RET mutants, G810R
T4 construct: KIF5B (fusion partner); expressed in transfected cells; host or cells: BaF3; the other entry of the earlier key: KIF5B (P33176, Kinesin-1 heavy chain)
T4 sequence (P07949 713-1063 G810R limits assumed): T1 sequence (P07949 713-1063 G810V limits assumed) with V98R
Source text: as §1

B/KR(G810C) CDX tumors = assay: In vivo activity on B/KR(G810C) CDX tumors in mice; details: daily oral gavage
Method: Mice bearing B/KR(G810C) CDX tumors were treated with the test compounds at the indicated doses by daily oral gavage. Tumor dimensions were measured with a caliper, and tumor sizes were estimated using the Formula: tumor size=(Length×width×width)/2. The data shown are the mean±sd.
BaF3/KR(G810C) cells were tested free of 20 mouse pathogens (IDEXX, Columbia, MO) and mycoplasma. Cells (1×10^7 cells/0.1 ml/each) were inoculated subcutaneously into the right flank of approximately 5-week old female SHO mice (Charles River, Wilmington, MA). After tumor formation, mice (6 mice/group) were treated with vehicle or test compounds at the indicated doses by oral gavage once a day. Tumor size and animal body weight were measured as described. Statistical analysis was performed using the unpaired Mann-Whitney test.

KIF5B-RET G810S = molecular target: T5, KIF5B-RET G810S (Homo sapiens, UniProt P07949, G810S); assay: Cell viability assay (CellTiter-Glo) in BaF3 cells expressing KIF5B-RET G810S; type: cell-based; details: B/KR mutant cell line G810S; read-out: IC50 of RET mutants, G810S
T5 construct: KIF5B (fusion partner); expressed in transfected cells; host or cells: BaF3; the other entry of the earlier key: KIF5B (P33176, Kinesin-1 heavy chain)
T5 sequence (P07949 713-1063 G810S limits assumed): T1 sequence (P07949 713-1063 G810V limits assumed) with V98S
Source text: as §1

Solubility at pH 6.8 = type: physicochemical
hERG = hERG (Homo sapiens, UniProt Q12809); assay: hERG inhibition; type: biochemical
Sequence of hERG (Q12809 whole entry): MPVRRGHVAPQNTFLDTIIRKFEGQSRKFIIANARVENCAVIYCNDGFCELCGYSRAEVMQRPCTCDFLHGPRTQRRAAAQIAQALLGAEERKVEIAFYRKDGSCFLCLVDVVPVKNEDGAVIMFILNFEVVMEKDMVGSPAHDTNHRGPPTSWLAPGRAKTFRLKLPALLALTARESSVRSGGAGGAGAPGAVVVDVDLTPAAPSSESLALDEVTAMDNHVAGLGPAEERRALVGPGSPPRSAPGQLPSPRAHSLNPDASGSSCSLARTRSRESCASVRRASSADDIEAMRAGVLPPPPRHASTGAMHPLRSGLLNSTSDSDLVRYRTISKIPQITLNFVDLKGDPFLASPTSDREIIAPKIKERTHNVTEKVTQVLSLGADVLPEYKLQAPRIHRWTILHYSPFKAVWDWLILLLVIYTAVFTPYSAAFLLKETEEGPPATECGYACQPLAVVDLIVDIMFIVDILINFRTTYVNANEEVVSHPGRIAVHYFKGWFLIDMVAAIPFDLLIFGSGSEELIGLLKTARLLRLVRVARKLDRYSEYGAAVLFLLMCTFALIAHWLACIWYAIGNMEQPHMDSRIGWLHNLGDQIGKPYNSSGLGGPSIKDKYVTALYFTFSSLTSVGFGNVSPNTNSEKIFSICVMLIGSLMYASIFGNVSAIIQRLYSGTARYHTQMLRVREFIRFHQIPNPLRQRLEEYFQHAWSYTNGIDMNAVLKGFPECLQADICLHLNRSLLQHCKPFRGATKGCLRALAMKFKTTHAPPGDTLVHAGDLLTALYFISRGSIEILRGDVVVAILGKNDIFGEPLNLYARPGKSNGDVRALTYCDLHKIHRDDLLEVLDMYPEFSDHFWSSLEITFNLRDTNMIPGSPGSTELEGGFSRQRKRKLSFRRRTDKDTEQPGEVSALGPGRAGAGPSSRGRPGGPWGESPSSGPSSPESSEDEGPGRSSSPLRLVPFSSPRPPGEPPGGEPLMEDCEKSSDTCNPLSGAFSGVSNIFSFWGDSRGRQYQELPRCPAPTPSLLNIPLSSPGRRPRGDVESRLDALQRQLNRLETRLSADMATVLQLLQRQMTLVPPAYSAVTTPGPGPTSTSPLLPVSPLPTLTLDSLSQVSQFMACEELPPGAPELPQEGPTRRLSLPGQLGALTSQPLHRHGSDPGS

[1] = Protein binding (human serum); type: in vitro ADME
KIF5B-RET V804M = molecular target: T6, KIF5B-RET V804M (Homo sapiens, UniProt P07949, V804M); assay: Cell viability assay (CellTiter-Glo) in BaF3 cells expressing KIF5B-RET V804M; type: cell-based; details: B/KR mutant cell line V804M; read-out: IC50 of RET mutants, V804M
T6 construct: KIF5B (fusion partner); expressed in transfected cells; host or cells: BaF3; the other entry of the earlier key: KIF5B (P33176, Kinesin-1 heavy chain)
T6 sequence (P07949 713-1063 V804M limits assumed): T1 sequence (P07949 713-1063 G810V limits assumed) with V92M, V98G
Source text: as §1

KIF5B-RET G810D = molecular target: T7, KIF5B-RET G810D (Homo sapiens, UniProt P07949, G810D); assay: Cell viability assay (CellTiter-Glo) in BaF3 cells expressing KIF5B-RET G810D; type: cell-based; details: B/KR mutant cell line G810D; read-out: IC50 of RET mutants, G810D
T7 construct: KIF5B (fusion partner); expressed in transfected cells; host or cells: BaF3 (lentiviral vector); the other entry of the earlier key: KIF5B (P33176, Kinesin-1 heavy chain)
T7 sequence (P07949 713-1063 G810D limits assumed): T1 sequence (P07949 713-1063 G810V limits assumed) with V98D
Source text: as §1

KIF5B-RET WT = molecular target: T8, KIF5B-RET WT (Homo sapiens, UniProt P07949); assay: Cell viability assay (CellTiter-Glo) in BaF3 cells expressing KIF5B-RET (B/KR), WT; type: cell-based; details: B/KR cell line, read-out: IC50 of RET mutants, WT
T8 construct: KIF5B (fusion partner); expressed in transfected cells; host or cells: BaF3; the other entry of the earlier key: KIF5B (P33176, Kinesin-1 heavy chain)
T8 sequence (P07949 with tags, fused parts or gaps): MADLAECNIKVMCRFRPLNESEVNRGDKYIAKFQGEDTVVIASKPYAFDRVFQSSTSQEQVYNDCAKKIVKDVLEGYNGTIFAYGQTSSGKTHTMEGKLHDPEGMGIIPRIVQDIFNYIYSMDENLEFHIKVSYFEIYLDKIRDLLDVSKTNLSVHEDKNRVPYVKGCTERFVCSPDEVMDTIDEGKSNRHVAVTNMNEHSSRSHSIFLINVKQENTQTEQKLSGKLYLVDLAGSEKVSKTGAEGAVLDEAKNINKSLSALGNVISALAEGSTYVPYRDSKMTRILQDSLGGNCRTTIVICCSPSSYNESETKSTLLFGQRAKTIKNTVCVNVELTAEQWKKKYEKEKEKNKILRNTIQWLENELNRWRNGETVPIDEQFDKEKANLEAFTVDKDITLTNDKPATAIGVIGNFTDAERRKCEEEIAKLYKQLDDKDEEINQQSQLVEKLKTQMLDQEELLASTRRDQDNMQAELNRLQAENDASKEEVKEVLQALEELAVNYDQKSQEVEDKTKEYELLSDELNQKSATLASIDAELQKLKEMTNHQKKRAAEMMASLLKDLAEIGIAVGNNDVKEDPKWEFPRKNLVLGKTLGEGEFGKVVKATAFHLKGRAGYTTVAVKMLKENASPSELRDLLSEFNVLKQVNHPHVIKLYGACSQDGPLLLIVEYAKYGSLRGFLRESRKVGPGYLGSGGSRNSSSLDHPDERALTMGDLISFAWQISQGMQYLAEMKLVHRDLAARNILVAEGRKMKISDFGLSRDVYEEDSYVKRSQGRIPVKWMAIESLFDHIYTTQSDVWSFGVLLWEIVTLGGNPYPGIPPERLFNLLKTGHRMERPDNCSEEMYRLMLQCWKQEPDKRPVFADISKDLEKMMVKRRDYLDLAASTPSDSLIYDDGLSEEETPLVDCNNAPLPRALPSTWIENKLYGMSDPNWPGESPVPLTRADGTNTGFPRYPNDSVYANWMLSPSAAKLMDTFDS
Source text: as §1

solubility (Solubility at pH 6.8): 117 µM (≈ 58 µg/mL)
protein-bound [1]: 94%
Structure (SMILES): CN1CCN(Cc2ccc(NC(=O)c3cncc(C#Cc4cnc(N)nc4)c3)cc2C(F)(F)F)CC1 [Example 2, 5-((2-Aminopyrimidin-5-yl)ethynyl)-N-(4-((4-methylpiperazin-1-yl)methyl)-3-(trifluoromethyl)phenyl)nicotinamide]
IC50 (KIF5B-RET G810V): 8.34 ± 0.36 nM
IC50 (KIF5B-RET G810C): 12.2 ± 0.63 nM
IC50 (KIF5B-RET G810A): 3.89 ± 0.07 nM
IC50 (KIF5B-RET G810R): 46.8 ± 1.11 nM
effect on B/KR(G810C) CDX tumors (B/KR(G810C) CDX tumors; 25 mg/Kg): tumor regression
IC50 (KIF5B-RET G810S): 8.02 ± 0.21 nM
IC50 (hERG): 23000 nM
IC50 (KIF5B-RET V804M): 20.3 ± 1.09 nM
IC50 (KIF5B-RET G810D): 1.47 ± 0.05 nM
IC50 (KIF5B-RET WT): 3.49 ± 0.16 nM

Structure (SMILES): CN1CCN(Cc2ccc(NC(=O)c3cncc(C#Cc4cnc5[nH]ncc5c4)c3)cc2C(F)(F)F)CC1 [Example 1, 5-((1H-Pyrazolo[3,4-b]pyridin-5-yl)ethynyl)-N-(4-((4-methylpiperazin-1-yl)methyl)-3-(trifluoromethyl)phenyl)nicotinamide]
IC50 (KIF5B-RET G810V): 4.1 ± 0.3 nM
IC50 (KIF5B-RET G810C): 11.4 ± 0.32 nM
IC50 (KIF5B-RET G810A): 1.56 ± 0.07 nM
IC50 (KIF5B-RET G810R): 24.5 ± 0.79 nM
IC50 (KIF5B-RET G810S): 7.76 ± 0.33 nM
IC50 (KIF5B-RET V804M): 14.1 ± 0.54 nM
IC50 (KIF5B-RET G810D): 5.21 ± 0.36 nM
IC50 (KIF5B-RET WT): 1.7 ± 0.08 nM

Structure (SMILES): CN1CCN(Cc2ccc(NC(=O)c3cncc(C#Cc4cnc(N)c5ncccc45)c3)cc2C(F)(F)F)CC1 [HSN608, reference compound]
effect on B/KR(G810C) CDX tumors (B/KR(G810C) CDX tumors; 50 mg/Kg): tumor regression
solubility (Solubility at pH 6.8): 0.07 µM (≈ 0.0382 µg/mL)
protein-bound [1]: 99%
